The target in this assay is T1, human DGAT1 (Homo sapiens, UniProt O75907).
T1 sequence (O75907 1-488): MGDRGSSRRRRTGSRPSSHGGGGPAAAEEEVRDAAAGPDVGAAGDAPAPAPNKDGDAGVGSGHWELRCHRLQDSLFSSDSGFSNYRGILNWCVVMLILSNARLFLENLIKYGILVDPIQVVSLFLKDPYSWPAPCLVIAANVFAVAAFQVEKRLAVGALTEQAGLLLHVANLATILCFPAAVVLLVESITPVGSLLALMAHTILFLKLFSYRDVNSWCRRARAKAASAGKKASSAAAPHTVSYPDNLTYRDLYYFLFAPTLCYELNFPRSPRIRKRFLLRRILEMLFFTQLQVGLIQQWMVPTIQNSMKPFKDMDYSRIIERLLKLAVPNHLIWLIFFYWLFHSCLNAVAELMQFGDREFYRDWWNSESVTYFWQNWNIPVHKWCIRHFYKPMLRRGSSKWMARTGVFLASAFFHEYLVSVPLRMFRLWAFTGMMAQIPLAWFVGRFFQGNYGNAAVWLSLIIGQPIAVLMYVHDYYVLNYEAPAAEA
The assay is described as follows: DGAT1 CPM Assay. The format is biochemical. To be noted: human DGAT1, CPM fluorescence, 1 hour incubation at room temperature. The method, then: 20 uL of 90 uM CPM reagent in 90% ethanol was added after 1 hour incubation at room temperature.
As usually defined, the IC50 is the midpoint of a concentration-inhibition curve. Take `O=C(O)C1(COC2CCN(c3ccc(-c4nc5ccc(F)cc5[nH]4)cn3)CC2)CCC1` [Example 39]: the concentration for half-maximal inhibition (IC50) worked out at 15 nM.
Consider `O=C(O)C1(COC2CCN(c3ccc(-c4nc5ccccc5[nH]4)cn3)CC2)CC1` [Example 41], for which the IC50 amounted to 1200 nM.
As for `O=C(O)C1(COC2CCN(c3ccc(-c4nc5ccccc5[nH]4)cn3)CC2)CCC1` [Example 42], 50 nM corresponded to half-maximal inhibition (IC50).
The same measure for `O=C(O)C1(COC2CCN(c3ccc(-c4nc5ccc(Cl)cc5[nH]4)cn3)CC2)CCC1` [Example 43]: 6 nM; for `COc1ccc2nc(-c3ccc(N4CCC(OCC5(C(=O)O)CCC5)CC4)nc3)[nH]c2n1` [Example 44]: 89 nM; for `O=C(O)C1(COC2CCN(c3ccc(-c4nc5ccc(C(F)(F)F)cc5[nH]4)cn3)CC2)CCOCC1` [Example 45]: 7 nM.
Molecule `O=C(O)C1(COC2CCN(c3ccc(-c4nc5ccc(F)cc5[nH]4)cn3)CC2)CCOCC1` [Example 46] showed a 50% inhibitory concentration (IC50) of 97 nM.
Molecule `CC(C)(COC1CCN(c2ccc(-c3nc4cc(Cl)ccc4[nH]3)cn2)CC1)C(=O)O` [Example 47] gave an IC50 of 5 nM.
In the case of `COc1ccc2[nH]c(-c3ccc(N4CCC(OCC(C)(C)C(=O)O)CC4)nc3)nc2n1` [Example 48], the IC50 worked out at 60 nM.
Consider `O=C(O)C1(COC2CCN(c3ccc(-c4nc5ccccc5[nH]4)cn3)CC2)CCOCC1` [Example 49], for which 220 nM corresponded to half-maximal inhibition (IC50).
`O=C(O)C1(COC2CCN(c3ccc(-c4nc5ccc(Cl)cc5[nH]4)cn3)CC2)CCOCC1` [Example 50] returned a 50% inhibitory concentration (IC50) of 17 nM.
`O=C(O)CC1CC(OC2CCN(c3ccc(-c4nc5ccc(C(F)(F)F)cc5[nH]4)cn3)CC2)C1` (centres unmarked) [Example 51] came in with a half-maximal inhibitory concentration (IC50) of 6 nM.
Then `O=C(O)CC1CC(OC2CCN(c3ccc(-c4nc5ccc(C(F)(F)F)cc5[nH]4)cn3)CC2)C1` (centres unmarked) [Example 52], with 10 nM; and `O=C(O)CC1CC(OC2CCN(c3ccc(-c4nc5cc(F)ccc5[nH]4)cn3)CC2)C1` (centres unmarked) [Example 53], with 56 nM.
Molecule `O=C(O)CC1CC(OC2CCN(c3ccc(-c4nc5cc(F)ccc5[nH]4)cn3)CC2)C1` (centres unmarked) [Example 54] registered an IC50 of 51 nM.
As to `O=C(O)CC1C[C@@H]2CC(OC3CCN(c4ccc(-c5nc6ccc(C(F)(F)F)cc6[nH]5)cn4)CC3)C[C@@H]2C1` (some centres unmarked) [Example 56], 2 nM corresponded to half-maximal inhibition (IC50).
For `O=C(O)CC1C[C@@H]2CC(OC3CCN(c4ccc(-c5nc6ccc(C(F)(F)F)cc6[nH]5)cn4)CC3)C[C@@H]2C1` (some centres unmarked) [Example 57], 2 nM corresponded to half-maximal inhibition (IC50).
Regarding `CC(C)(COC1CCN(c2ccc(-c3nc4cc(F)c(F)cc4[nH]3)cn2)CC1)C(=O)O` [Example 60], the midpoint of inhibition, the IC50, lay at 16 nM.
Regarding `CC(C)(COC1CCN(c2ccc(-c3nc4cc(C(F)(F)F)cnc4[nH]3)cn2)CC1)C(=O)O` [Example 61], 46 nM corresponded to half-maximal inhibition (IC50).
In the case of `CC(C)(COC1CCN(c2ccc(-c3nc4cc(C#N)ccc4[nH]3)cn2)CC1)C(=O)O` [Example 62], half-maximal inhibition (IC50) required 90 nM.
Molecule `CC(C)(COC1CCN(c2ccc(-c3nc4cc(Cl)cnc4[nH]3)cn2)CC1)C(=O)O` [Example 63] registered an IC50 of 118 nM.
As for `CC(C)(COC1CCN(c2ccc(-c3nc4cc(Cl)c(Cl)cc4[nH]3)cn2)CC1)C(=O)O` [Example 64], it took 2 nM to reach half-maximal inhibition (IC50).
With `Cc1ccc2[nH]c(-c3ccc(N4CCC(OCC(C)(C)C(=O)O)CC4)nc3)nc2n1` [Example 65], the IC50 came to 790 nM.
Consider `COc1ccc2[nH]c(-c3ccc(N4CCC(OCC(C)(C)C(=O)O)CC4)nc3)nc2n1` [Example 66], for which half-maximal inhibition (IC50) was put at 140 nM.
The molecule `O=C(O)[C@H]1CC[C@@H](OC2CCN(c3ccc(-c4nc5cc(C(F)(F)F)ccc5[nH]4)cn3)CC2)CC1` [Example 68, cis-4-[(1-{5-[5-(trifluoromethyl)-1H-benzimidazol-2-yl]pyridin-2-yl}piperidin-4-yl)oxy]cyclohexanecarboxylic acid] displayed an IC50 of 2 nM.
The molecule `O=C(O)[C@H]1CC[C@H](OC2CCN(c3ccc(-c4nc5cc(C(F)(F)F)ccc5[nH]4)cn3)CC2)CC1` [Example 69, trans-4-[(1-{5-[5-(trifluoromethyl)-1H-benzimidazol-2-yl]pyridin-2-yl}piperidin-4-yl)oxy]cyclohexanecarboxylic acid] yielded an IC50 of 2 nM.
For `O=C(O)[C@H]1CC[C@H](OC2CCN(c3ccc(-c4nc5ccc(C(F)(F)F)nc5[nH]4)cn3)CC2)CC1` [Example 70, trans-4-[(1-{5-[5-(trifluoromethyl)-3H-imidazo[4,5-b]pyridin-2-yl]pyridin-2-yl}piperidin-4-yl)oxy]cyclohexanecarboxylic acid], the IC50 worked out at 11 nM.
Then `O=C(O)[C@H]1CC[C@H](OC2CCN(c3ccc(-c4nc5cc(Cl)ccc5[nH]4)cn3)CC2)CC1` [Example 71], with 3 nM; and `CCOC(=O)[C@H]1CC[C@H](OC2CCN(c3ccc(-c4nc5cc(Cl)ccc5[nH]4)cn3)CC2)CC1` [Example 72], with 35 nM.
Regarding `CCOC(=O)[C@H]1CC[C@H](OC2CCN(c3ccc(-c4nc5cc(F)ccc5[nH]4)cn3)CC2)CC1` [Example 73], the midpoint of inhibition, the IC50, lay at 71 nM.
Then `O=C(O)[C@H]1CC[C@H](OC2CCN(c3ccc(-c4nc5cc(F)ccc5[nH]4)cn3)CC2)CC1` [Example 74], with 15 nM; and `CCOC(=O)[C@H]1CC[C@@H](OC2CCN(c3ccc(-c4nc5cc(Cl)ccc5[nH]4)cn3)CC2)CC1` [Example 75], with 14 nM; and `O=C(O)[C@H]1CC[C@@H](OC2CCN(c3ccc(-c4nc5cc(Cl)ccc5[nH]4)cn3)CC2)CC1` [Example 76], with 2 nM.
`CCOC(=O)[C@H]1CC[C@@H](OC2CCN(c3ccc(-c4nc5cc(F)ccc5[nH]4)cn3)CC2)CC1` [Example 77] came in with an IC50 of 17 nM.
As for `O=C(O)[C@H]1CC[C@@H](OC2CCN(c3ccc(-c4nc5cc(F)ccc5[nH]4)cn3)CC2)CC1` [Example 78], the IC50 is 6 nM.
The molecule `CC1(S(=O)(=O)NC(=O)[C@H]2CC[C@H](OC3CCN(c4ccc(-c5nc6cc(F)ccc6[nH]5)cn4)CC3)CC2)CC1` [Example 80, trans-4-({1-[5-(5-fluoro-1H-benzimidazol-2-yl)pyridin-2-yl]piperidin-4-yl}oxy)-N-[(1-methylcyclopropyl)sulfonyl]cyclohexanecarboxamide] came in with an IC50 of 23 nM.
For the molecule `CC(C)S(=O)(=O)NC(=O)[C@H]1CC[C@H](OC2CCN(c3ccc(-c4nc5cc(F)ccc5[nH]4)cn3)CC2)CC1` [Example 81], half-maximal inhibition (IC50) was put at 17 nM.
Turning to `O=C(NS(=O)(=O)c1cccnc1)[C@H]1CC[C@H](OC2CCN(c3ccc(-c4nc5cc(F)ccc5[nH]4)cn3)CC2)CC1` [Example 82], the concentration for half-maximal inhibition (IC50) was determined as 19 nM.
`O=C(NS(=O)(=O)C1CC1)[C@H]1CC[C@H](OC2CCN(c3ccc(-c4nc5cc(F)ccc5[nH]4)cn3)CC2)CC1` [Example 83] showed an IC50 of 17 nM.
Molecule `O=C(NS(=O)(=O)c1ccccn1)[C@H]1CC[C@H](OC2CCN(c3ccc(-c4nc5cc(F)ccc5[nH]4)cn3)CC2)CC1` [Example 84] displayed a half-maximal inhibitory concentration (IC50) of 25 nM.
With `O=C(NS(=O)(=O)c1ccc(C(F)(F)F)cc1)[C@H]1CC[C@H](OC2CCN(c3ccc(-c4nc5cc(F)ccc5[nH]4)cn3)CC2)CC1` [Example 85], the IC50 came out at 9 nM.
The molecule `CS(=O)(=O)NC(=O)[C@H]1CC[C@H](OC2CCN(c3ccc(-c4nc5cc(F)ccc5[nH]4)cn3)CC2)CC1` [Example 86] showed an IC50 of 19 nM.
Then `O=C(NS(=O)(=O)c1ccccc1)[C@H]1CC[C@H](OC2CCN(c3ccc(-c4nc5cc(F)ccc5[nH]4)cn3)CC2)CC1` [Example 87], with 14 nM.
`O=C(NS(=O)(=O)c1ccc(F)cc1)[C@H]1CC[C@H](OC2CCN(c3ccc(-c4nc5cc(F)ccc5[nH]4)cn3)CC2)CC1` [Example 88] registered a concentration for half-maximal inhibition (IC50) of 9 nM.
The same measure for `O=C(NS(=O)(=O)c1ccc(Cl)cc1)[C@H]1CC[C@H](OC2CCN(c3ccc(-c4nc5cc(F)ccc5[nH]4)cn3)CC2)CC1` [Example 89]: 4 nM; for `O=C(NS(=O)(=O)C(F)(F)F)[C@H]1CC[C@H](OC2CCN(c3ccc(-c4nc5cc(F)ccc5[nH]4)cn3)CC2)CC1` [Example 91]: 7 nM.
`O=C(O)C1(C(=O)O)CC(OC2CCN(c3ccc(-c4nc5ccccc5[nH]4)cn3)CC2)C1` [Example 92] came in with an IC50 of 147 nM.
Then `O=C(O)C1(C(=O)O)CC(OC2CCN(c3ccc(-c4nc5cc(F)ccc5[nH]4)cn3)CC2)C1` [Example 93], with 71 nM; and `O=C(O)C1(C(=O)O)CC(OC2CCN(c3ccc(-c4nc5cc(F)c(F)cc5[nH]4)cn3)CC2)C1` [Example 94], with 122 nM; and `O=C(O)C1(C(=O)O)CC(OC2CCN(c3ccc(-c4nc5cc(C(F)(F)F)ccc5[nH]4)cn3)CC2)C1` [Example 95], with 85 nM.
Turning to `N#Cc1ccc2[nH]c(-c3ccc(N4CCC(OC5CC(C(=O)O)(C(=O)O)C5)CC4)nc3)nc2c1` [Example 96], inhibition was half-maximal at 277 nM (IC50).
Regarding `Cc1ccc2[nH]c(-c3ccc(N4CCC(OC5CC(C(=O)O)(C(=O)O)C5)CC4)nc3)nc2n1` [Example 97], the IC50 is 1000 nM.
Turning to `C[C@]1(C(=O)O)CC[C@@H](OC2CCN(c3ccc(-c4nc5ccc(C(F)(F)F)cc5[nH]4)cn3)CC2)CC1` [Example 98, cis-1-methyl-4-[(1-{5-[6-(trifluoromethyl)-1H-benzimidazol-2-yl]pyridin-2-yl}piperidin-4-yl)oxy]cyclohexanecarboxylic acid], the IC50 was found to be 4 nM.

(Values after US20140088124A1, “IMIDAZOLE DERIVATIVES” (priority 2011, published 2014).)
